From patent US20220175744A1, “COMBINATIONS OF TRANSCRIPTION INHIBITORS AND IMMUNE CHECKPOINT INHIBITORS FOR TREATMENT OF DISEASE” (Board of Regents, The University of Texas System, priority 2019, published 2022) come the findings set out here.

One may read the pIC50 as the negative decadic logarithm of the IC50, by convention in mol/L. A lower pIC50 goes with a high IC50.

Type in all cases: cell-based
In assay [1] the test system is patient-derived and commercially-available PDAC cell lines. The assay can be described thus: proliferation assay in a panel of PDAC cell lines. To be noted: range over all tested PDAC cell lines.
Assay [2] deals with T1, p-STAT3 (Homo sapiens, UniProt P40763).
T1 construct: endogenous in cells
The assay is described as follows: inhibition of p-STAT3 by western blot and immunofluorescence in PDAC cell lines. To be noted: all tested PDAC cell lines; western blot, immunofluorescence. Here is the method:
The chemical synthesis of WP1066 and WP1732 and their characterization was performed at U.T. MD Anderson Cancer Center. In vitro efficacy of both inhibitors was assessed using proliferation and apoptosis induction assays in a panel of patient-derived and commercially-available PDAC cell lines. Inhibition of p-STAT3 was investigated using western blot (WB) and immunofluorescence. […] Observed IC50 values ranged from 0.5 to 2 μM.
A general note: A western blot detects proteins with antibodies after separation by electrophoresis.

The subject of assay [3] is patient-derived and commercially-available PDAC cell lines. The assay can be described thus: apoptosis induction assay in PDAC cell lines. To be noted: all tested PDAC cell lines.

pIC50: −log10 of the molar value.

T1 sequence (P40763 whole entry): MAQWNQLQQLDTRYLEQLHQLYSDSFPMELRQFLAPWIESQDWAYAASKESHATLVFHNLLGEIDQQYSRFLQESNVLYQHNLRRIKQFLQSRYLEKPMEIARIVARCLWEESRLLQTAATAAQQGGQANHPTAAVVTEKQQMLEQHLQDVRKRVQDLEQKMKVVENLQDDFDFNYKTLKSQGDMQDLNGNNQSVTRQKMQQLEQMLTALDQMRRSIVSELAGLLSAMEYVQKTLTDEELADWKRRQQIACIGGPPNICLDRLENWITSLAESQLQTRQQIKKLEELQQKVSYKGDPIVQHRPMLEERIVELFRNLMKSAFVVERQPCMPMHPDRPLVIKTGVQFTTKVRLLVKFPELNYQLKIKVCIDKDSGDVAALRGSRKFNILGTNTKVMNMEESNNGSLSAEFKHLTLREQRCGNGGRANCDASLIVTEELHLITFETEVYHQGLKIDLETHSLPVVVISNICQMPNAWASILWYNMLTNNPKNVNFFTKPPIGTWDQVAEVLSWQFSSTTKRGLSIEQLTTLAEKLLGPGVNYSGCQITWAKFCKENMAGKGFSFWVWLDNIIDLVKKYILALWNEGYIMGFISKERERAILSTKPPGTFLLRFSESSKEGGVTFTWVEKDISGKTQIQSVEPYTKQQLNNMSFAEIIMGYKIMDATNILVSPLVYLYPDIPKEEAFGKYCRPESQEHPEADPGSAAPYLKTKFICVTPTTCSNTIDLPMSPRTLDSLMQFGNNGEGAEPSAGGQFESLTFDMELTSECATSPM

For the compound `C[C@H](NC(=O)/C(C#N)=C/c1cccc(Br)n1)c1ccccc1` [WP1066], the pIC50 in assay [1] is 5.70 to 6.30. Also, the “inhibition of p-STAT3 and its nuclear localization” value in assay [2] was “inhibit p-STAT3 and its nuclear localization”. For the same compound, the apoptosis induction entry in assay [3] is listed as “induce apoptosis”.
